Where two headings read alike, the source gives them in different places.
Columns and labels:
[1] = system: constitutive nitric oxide synthase (cNOS) mRNA; experiment: Northern blot analysis of cNOS mRNA in PTE cells; type: cell-based, mouse; conditions: 12 h
Description: FIGS. 8A and 8B. Norther blot analysis of constitutive nitric oxide synthase (cNOS) mRNA expression. (A) Autoradiogram of RNA separated by agarose-formaldehyde gel electrophoresis, transfered to nylon membranes, and probed with ^32 P-labelled oligonucleotide probes as described in Example 2, infra. (B) Reltive intensities of cNOS to 18S rRNA quantified by densitometry. Cells were treated with buffer, angiotensin (1 μM), angiotensin with osteopontin (0.1 and 0.001 nM), or ionomycin, as indicated in B. The blots in (A) correspond to the bars in (B).
Northern Blot Analysis. Total RNA was isolated using TRI reagent (Molecular Research Center, Cincinnati, Ohio) after 12 h stimulation in the medium (see Example 1). Rat brain constitutive nitric oxide synthase (cNOS) cDNA was obtained as described (Bredt et al., 1991, Nature 351:714-718). Five μg of total RNA was separated on an agarose-formaldehyde gel, transferred onto a nylon membrane (GeneScreen Plus, NEN Research Products, Du Pont, Boston, Mass.) and hybridized with a ^32 P-labeled cNOS cDNA probe. The blot was washed 3 times with 0.5×SSC, 0.1% SDS at 65° C. and autoradiographed for 1 to 3 days. The membrane was stripped and successively hybridized to a mouse 18S rRNA probe. The relative intensities of cNOS to 18S rRNA in the resulting autoradiograms were quantified by densitometry (Pharmacia LKB, UltraScan XL).

primary mouse PTE cells = experiment: Intracellular calcium mobilization (Indo-1 AM) in PTE cells; type: cell-based
Description: FIGS. 9A-D. Induction of calcium mobilization by ionomycin, angiotensin II and osteopontin in PTE cells. Cells were incubated with 1 μM Indo-1 AM [1-(2-amino-5-(6-carboxyindol-2-yl)phenoxy)-2-(2'-amino-5'-methylphenoxy)ethane-N,N,N',N'-tetraacetic acid) and analyzed on a Meridian 570 Anchored Cell Analysis System (ACAS) equipped with an Innova 90 5-W laser adjusted to an output of 100 mW. Calcium mobilization was quantified by scanning single 150×150 μm fields containing about 10 cells every 30 s for a total of 10 min and quantifying the emission at 500 nm (calcium-free Indo-1) and 400 nm (calcium-bound Indo-1). After 1 min, the cells were stimulated with (A) control, (B) 10 μM ionomycin, (C) […] angiotensin II, and (D) 2 nM or 0.1 nM OPN.
Measurement of intracellular calcium mobilization. Primary mouse PTE cells were subcultured onto collagen-coated Nunc coverglass chambers (Nunc, Inc., Naperville, Ill.). Intracellular calcium mobilization was monitored using a fluorescent, calcium-sensitive indicator Indo-1-acetoxymethyl ester (Indo-1 AM) (Molecular Probes, Eugene, Oreg.) and qualified on a Meridian 570 Anchored Cell Analysis (ACAS) equipped with an Innova 90-5W laser adjusted to an output of 100 mW. Cells were washed with HBSS containing 0.3% bovine serum albumin (BSA) and incubated with 1 μM Indo-1 AM at 37° C. for 30 min. Then, the cells were washed 3 times and 1 ml of HBSS containing 0.3% BSA was added. The calcium ratio was determined by scanning single 150×150 μm field containing about 10 cells every 30 sec for a total of 10 min and recording the emission at 500 nm (calcium-free Indo-1) and 400 nm (calcium-saturated Indo-1). Intracellular calcium concentrations were determined by generating a standard curve using a known calcium solution (Gardner et al., 1993, J. Leukocyte Biol. 53:190-196). All data were analyzed with Meridian ACAS statistical software.

[2] = system: mouse primary kidney PTE cells; experiment: Nitrite production over 3 days in PTE cells treated with angiotensin II; type: cell-based; conditions: for nitrite production: agent alone, 3 days incubation; for effect on A II-induced nitrite production: 3 days incubation with A II
Description: FIG. 7. Angiotensin II enhances nitrite production by a process that can be reversed by OPN in PTE cells. Primary mouse kidney proximal tubule epithelial cells were grown as described in the Examples, infra. Cell were cultured and the medium collected after three days of growth in medium with the indicated supplements.
Preparation of Cells. CD-1 mice aged 4-6 weeks were obtained from Laboratory Animal Services of Nelson Biological Laboratory, Rutgers University, New Jersey. Primary mouse kidney proximal tubule epithelial (PTE) cells were prepared as previously described in Example 1. For NO measurement, cells were subcultured into 24-well tissue culture plates (Linbro, Hamden, Conn.) at 5×10^4 cells per well and incubated overnight for cell attachment. After removal of the medium, the cells were washed twice with Dulbecco's phosphate buffered saline (0.2 g/l KCl, 0.2 g/l KH2 PO4, 8 g/l NaCl, 1.15 g/l Na2 HPO4) and re-fed phenol red-free RPMI 1640 medium (Gibco) containing 10 μg/ml tetrahydrobiopterin (ICN Biochemicals, Cleveland Ohio).
Measurement of NO Production. Synthesis of NO in the medium over a 3-day period was determined by the accumulation of nitrite, a stable oxidized product of NO (Marletta, 1988, Chem. Res. Toxicol. 1:249-257). Nitrite was measured with the Griess reagents using sodium nitrite as standard, as described in Example 1.

[3] = system: primary mouse kidney proximal tubule epithelial cells; experiment: Nitrite accumulation (Griess reagent) in PTE cells stimulated with LPS and γ-IFN; type: cell-based; conditions: for effect on LPS and γ-IFN-induced nitrite (NO) production: agent alone on stimulated cells, nitrite at 24 h; for nitrite production relative to the LPS and γ-IFN-stimulated cells: measured at 24 h
Description: Cell culture. […] Clin. Invest. 91:2138-43). Briefly, slices of cortex from decapsulated kidneys were washed in unsupplemented RPMI 1640 and cut int 1-2 mm^3 pieces, which were then incubated for 20 min. at 37° C. in Krebs-Henseleit buffer (Sigma Chemical Co., St. Louis, Mo.) supplemented with 10 mM HEPES (pH 7.5), 1 g/l D-glucose, 200 mg/1 sodium pyruvate, 0.125 mg/ml collagenase (Type 1A, Sigma), and 0.6 U/ml dispase (Boehringer Mannheim Biochemica, Indianapolis, Ind.). The digested cortex was centrifuged at 70×g for 3 min and the cells resuspended in RPMI 1640 supplemented with 10 mM HEPES (pH 7.5), 5 μg/ml human transferrin, 50 nM dexamethasone, 5 μg/ml insulin (Gibco, Gaithersberg, Md.), 3% fetal bovine serum, 100 U/ml penicillin and 100 μg/ml streptomycin. For NO measurements, cells were subcultured into 24-well culture plates (Linbro, Hamden, Conn.) at 5×10^4 cells/16-mm well and incubated overnight. After removal of the medium, the cells were washed 3 times with Dulbecco's phosphate buffered saline (Sigma D5652), and re-fed with phenol red-free RPMI 1640 medium containing 2 mM […] and 10 μg/ml tetrahydrobiopterin (ICN Biochemicals, Cleveland, Ohio) in the presence or absence of 100 ng/ml lipopolysaccharide (LPS) (Sigma) and 100 U/ml recombinant mouse γ-interferon (γ-IFN). Measurement of NO (as NO2^-) production. Nitric oxide is a short-lived reactive nitrogen intermediate that in aqueous solution in the absence of oxyhemoproteins or superoxide, is oxidized primarily to nitrite (Ignarro et al., 1993, Proc. Natl. Acad. Sci. U.S.A. 90:8103-07). Under such conditions NO production can be assessed by the accumulation of nitrite in the medium. […] Biochem. 126:131-138).

osteoclasts = conditions: Zimolo et al. 1993; cited from earlier work
rabbit kidney PTE cells = conditions: primary cultures of rabbit kidney PTE cells; Norman et al. 1987; cited from earlier work
[4] = system: inducible nitric oxide synthase (iNOS) mRNA; experiment: Northern blot analysis of iNOS mRNA in stimulated PTE cells; type: cell-based, mouse; conditions: measured at 8 h, subconfluent PTE cells
Description: FIGS. 3A and 3B. Inhibition of inducible NO-synthase (iNOS) gene induction by OPN. A) Northern blot analysis of iNOS mRNA and 18s rRNA levels in primary mouse kidney epithelial cells 8 h after treatment. B) Accumulation of nitrite in the medium 24 h after treatment. Values are the mean±standard error from three separate plates. Lane 1: control; lanes 2, 4 and 5: stimulated with 100 ng/ml LPS plus 100 U/ml γIFN; lanes 3 and 4: treated with 1 pM OPN; lanes 5 and 6: treated with 100 pM OPN.
Northern blot analysis. Total RNA was isolated using the TRI reagent (Molecular Research Center, Cincinnati, Ohio). The RNA (5 μg) was fractionated on formaldehyde-agarose gels, blotted and probed using standard procedures (Sambrook et al., 1989, supra). The mouse cDNA corresponding to the macrophage inducible nitric oxide synthase gene (iNOS) has been described (Lyons, 1992, J. Biol. Chem. 267:6370-74).

iNOS protein = experiment: Immunofluorescence analysis of iNOS protein in PTE cells; type: cell-based, mouse; conditions: 100 pM OPN, LPS 100 ng/ml and γIFN 100 U/ml, 48 h
Description: FIGS. 4A-D. OPN-induced suppression of iNOS protein in PTE cells. Cells were fixed and permeabilized by incubation of 30 min with 0.4 mM lysophosphatidylcholine in 1% buffered formalin. After washing three times with phosphate-buffered saline, cells were blocked with 0.1% bovine serum albumin in phosphate-buffered saline and then incubated for 4 h first with a 1:10,000 dilution of rabbit peptide antibody to the C-terminal 10 amino acids of iNOS. After washing, the cells were incubated with FITC-conjugated goat-anti rabbit secondary antibody (Cappel, West Chester, Pa.). After an additional 30 min, the cells were washed and analyzed for fluorescence intensity using a Meridian ACAS anchored cell analysis system. A) Upper left, untreated control cells; B) upper right, cells treated for 48 h with LPS (100 ng/ml) and γIFN (100 U/ml); C) lower left, cells treated for 48 h with OPN (100 pM); D) lower right, cells treated for 48 h with LPS, γIFN and OPN. The color bar represents relative fluorescence intensity on the four-decade log scale with white being the most intense.

C[C@H](CCC(=O)O)C[C@H](C)C[C@H](C)C(=O)/C=C(\O)[C@H](C)C[C@H](C)C/C=C/[C@@H](C)[C@@H](O)[C@@H](C)[C@@H](O)C[C@@H]1CC[C@@](C)([C@H]2CC[C@@](C)([C@@H](C)O)O2)O1 [Ionomycin]
cNOS mRNA abundance ([1]; agent alone): greatly increase | calcium mobilization (primary mouse PTE cells; 10 μM ionomycin): an increase in cytosolic free calcium | nitrite production [2]: increased nitrite production

Ac-PTVDVPDGRGDSLAYGLRSK-NH2 [OPP]
effect on LPS and γ-IFN-induced nitrite (NO) production [3]: effective at reducing LPS and γ-IFN-induced NO production

OPN (purified from urine): OPN purified from urine, used by Zimolo et al. (cited)
concentration raising intracellular free Ca++ level (osteoclasts): 1 pM

A II: angiotensin (the x-mer peptide produced from angiotensinogen), obtained from Sigma (DRVYIHPF; Angiotensin-2; UniProt P01019 25-32, looked up)
enhancement of cNOS mRNA ([1]; angiotensin 1 μM, densitometry relative to rRNA): 3.5 fold | concentration necessary to induce a transient rise in cytosolic free calcium (rabbit kidney PTE cells): 5 µM | calcium mobilization (primary mouse PTE cells): a fast and transient rise in cytosolic free calcium levels | calcium mobilization (primary mouse PTE cells; 1 μM, within 10 min): only a delayed and small transient response in calcium mobilization | nitrite production [2]: dose-dependent increase in nitrite accumulation

CNC(=N)NCCC[C@H](N)C(=O)O [L-NMA, N^G -methyl-L-arginine, reference compound]
effect on LPS and γ-IFN-induced nitrite (NO) production [3]: Inhibition of nitrite accumulation | effect on A II-induced nitrite production [2]: inhibited the nitrite production induced by A II

OPN: Recombinant human osteopontin, secreted 44 kDa RGD-containing phosphoprotein, purified from transfected MH2 human embryonic kidney cells
effect on amount of A II-induced cNOS mRNA ([1]; OPN 0.1 nM or 1 pM with A II): only a modest effect | nitrite production relative to the LPS and γ-IFN-stimulated cells ([3]; 1 pM OPN added simultaneously with inducers): 45% | nitrite production relative to the LPS and γ-IFN-stimulated cells ([3]; 100 pM OPN added simultaneously with inducers): 24% | time-dependence of inhibition of NO production ([3]; OPN 100 pM added 60 min prior to γ-IFN and LPS, nitrite after 24 h): more inhibitory than when added simultaneously | effective concentration for suppression of NO production ([3]; confluent cells): required higher concentrations | effective concentration for suppression of NO production ([3]; subconfluent PTE cells): ~ 10 pM | concentration dependence of calcium reduction (primary mouse PTE cells; 2 nM compared with 0.1 nM OPN): the smaller concentration of OPN was more potent in reducing calcium levels | calcium mobilization (primary mouse PTE cells; 2 nM or 0.1 nM OPN): a reduction in the cytosolic free calcium | effect on A II-induced nitrite production [2]: almost completely blocked | level of the 4 kb mRNA species (iNOS mRNA), normalized to 18 S rRNA ([4]; 1 pM OPN added simultaneously with LPS and γ-IFN): 54% | level of the 4 kb mRNA species (iNOS mRNA), normalized to 18 S rRNA ([4]; 100 pM OPN added simultaneously with LPS and γ-IFN): 31% | iNOS protein concentration in stimulated cells (iNOS protein): diminished concentration of iNOS protein

From patent US5695761A, “Suppression of nitric oxide production by osteopontin” (Rutgers University, priority 1993, dated 1997)
